From patent US12440471B2, “Compositions and methods for the treatment of bronchopulmonary dysplasia (BPD) and BPD-associated pulmonary hypertension” (AyuVis Research, Inc., priority 2021, dated 2025)

Legend:
[1] = system: human cord blood monocytes (CBMC); test: Cytokines in human cord blood monocytes (CBMC); format: cell-based
From the text: IL-12p40, is a marker for the innate immune response to infection and is down regulated in CBMC.

[2] = PK in preterm lambs after IV dosing; format: in vivo, lamb
Protocol: A total 9 lambs were used for this study. One dose of Curosurf was given intratracheally to the PT lamb just after birth. Randomized doses of compound AVR-48 (8) (0, 0.1, 0.3, 1.0 and 3.0 mg/kg) were administered intravenously every 12 hr after the initial dose that will be given at 6 hr after delivery to n=2-4 lambs via slow intravenous injection. The beginning treatment at 6 hr post-delivery is selected to represent the human case where neonatologists attempt to allow an infant to breath without mechanical ventilation, if possible, and then begin invasive respiratory support as necessary. Whole blood was drawn from PT lambs at the time of delivery (“pre-dose”), immediately after dosing (IAD), at 15, 30, 45, and 60 min, and at 2, 4, 8, 12, 24, 48, 72, and 96 hr after the initial dose. Plasma extractions and bioanalysis of compound AVR-48 (8) were performed using a qualified bioanalysis method already developed by us. The PK parameters were calculated following both non-Compartmental Pharmacokinetic Modeling and population Pharmacokinetic Modeling as described by Roberts et al previously (Roberts, Stockmann et al. 2016). Blood was collected every 15 min for the first 90 min of postnatal life, followed by every 3 hours for 12 hours and then spaced at 1.5 d, 2.5 d, 3.5 d, 6.5 d, and 9.5 d for analysis of cytokines (Visconti, Senthamaraikannan et al. 2018) and VEGF levels (Albertine, Dahl et al. 2010). The blood samples also were analyzed for hematology and liver enzymes. After 6-7 d of mechanical ventilation, the lambs will be weaned from mechanical ventillation and weaned to non-invasive support for 3 d to ascertain longer-term outcome (Dahl, Bowen et al. 2018). Terminally, the PT lambs were euthanized after 10 days and their heart/lungs and brain were removed. Ex vivo BAL of the right cranial lobe (it has its own bronchus, pulmonary artery and vein) was done for similar analyses. Tracheal aspirates were collected according to the protocol for cytokines, BAL protein, ICAM-1 and VEGF. The spleen was collected to analyze immune cell population, using FACS.

whole cord blood (WCB) = test: Cytokines in whole cord blood (WCB); format: cell-based, human
From the text: IL-1β and IFN-Υ were not detected with either AVR-48 alone or in combination with LPS. N=[…], **p<0.05, ***p<0.005, ****p<0.001, One-way ANOVA.

hPBMC [3] = test: Macrophage populations in hPBMC by FACS; format: cell-based, human; conditions: 72 h
Protocol: Briefly, hPBMC were plated in a 96 well plate and treated with AVR 48 for 72 hrs. The cells were washed and stained for CD32, CD14, CD16, HLADR, CD86, CD206 anti-human antibodies and were analyzed by FACS. Dead cells were excluded by live/dead staining (7AAD) during analysis. The % of intermediate macrophages of the parent cells are determined as the macrophages stained positive for both HLADR and CD206 surface markers. The bar graph representing percentage of intermediate macrophages (Mint) of the parent macrophage populations (CD14+CD16+) after treatment with AVR-48. n=2 technical replicates and the experiment is repeated 3 times. AVR-48 binds to both toll-like receptor 4 (TLR4) and CD163 receptor on monocytes. In hPBMC, AVR-48 treatment for 72 h increased the percentage of intermediate macrophages and decreased M1 macrophages.

hPBMC [4] = test: Secreted IL-10 and LPS induced TNF-α in hPBMC by ELISA; format: cell-based, human
Protocol: FIG. 26 C, Pretreatment (24 h) of AVR-48 to hPBMC followed by 6h of treatment with LPS (25 ng/ml) decreased the secreted TNF-α production in hPBMC cell supernatants. N=3.**p<0.01, ***p<0.001. One-way ANOVA.

pre-term lamb BPD model = test: Pre-term lamb BPD model: respiratory system mechanics by forced oscillation technique; format: in vivo
From the text: Forced oscillation technique (FOT) allows non-invasive measurement of respiratory system (rs) impedance (Zrs) in uncooperative subjects by applying a pressure stimulus at the airway opening and measuring the resulting flow. The inventors have shown that FOT provides reliable noninvasive measurement of respiratory system mechanics in spontaneously breathing, normal term lambs from birth through the first 5 months of life (Dahl, Bowen et al. 2018). The methods and normal reference values defined in this study provide normal physiological context for determining the pathophysiological consequences of preterm birth.

[5] = system: hyperoxia-exposed BPD mouse model; test: BPD mouse model: bronchoalveolar lavage fluid (BALF) analysis; format: in vivo; conditions: vs BPD group
From the text: For the hyperoxia experiment, newborn pups were exposed to 100% hyperoxia (P0), along with their mothers, in cages in an airtight Plexiglas chamber (OxyCycler; Biospherix, Redfield, NY, USA) as described previously by the present inventors (Syed, Das et al., 2017, Leary, Das et al. 2019, Das, Acharya et al. 2020, relevant portions incorporated herein) for 4 consecutive days (till P4) and removed to RA on P5 to be recovered till P14, so as to emulate the human BPD condition. All pups were sacrificed on P14 for further experimental analyses. The pups without any hyperoxia exposure served as the corresponding RA (normoxia) controls.
Bronchoalveolar lavage fluid (BALF) Analysis. Pups were sacrificed on PN14, and the trachea was cannulated with a small-caliber needle by instilling PBS endotracheally at […] pressure for 15 minutes. Two volumes of 300 μL of cold 1×PBS were instilled, gently aspirated, and pooled. Samples were centrifuged at 1000×g for 10 minutes at 4° C. The supernatant was collected, and total protein was quantified using the Pierce™ BCA Protein Assay Kit (Fisher Scientific Co, Houston, TX). The total cell count was done using the TC20 cell counter (BioRad, Hercules, CA). Similar method was followed for analyzing the protein concentration in BAL fluid collected from preterm lambs.

[6] = sheep, plasma, single IV dose 3.0 mg/kg/dose saline solution, n=3 preterm lambs
[7] = AVR-48 alone or in combination with LPS

## CC(=O)N[C@@H]1C(Oc2ccc([N+](=O)[O-])cc2)OC(CO)C(O)C1O (some centres unmarked) [AVR-48]
[1]; AVR-48 alone, 0.1-10 μM
  IL-10 increase: ~2.5 fold
[1]; LPS+AVR-48, 10 μM
  IL-1β: decreased
  IL-10: decreased
[1]; compound alone (10 μM) or with LPS, compared with only LPS
  IL-12p40 response: higher IL-12p40 response than only LPS
[1]; human CBMC, LPS
  TNF-α levels: decreased
[2]; repeat IV dosing for 7 days
  drug accumulation: no drug accumulation
[2]; [6]
  Cmax: 12.2 ± 5.6 µM
  half-life: 33.6 min
[2]; single IV dose 3.0 mg/kg/dose
  plasma concentration profile: linear decline in drug concentration
Whole cord blood (WCB); [7]
  IFN-Υ: not detected
  IL-1β: not detected
Whole cord blood (WCB); AVR-48 alone, 10 μM
  IL-10 increase: ~1.5 fold
Whole cord blood (WCB); LPS+AVR-48, 10 μM
  IL-10: increased
Whole cord blood (WCB); alone or in combination with LPS
  TNF-α level: significantly decreased
hPBMC [3]
  M1 macrophages: decreased
  percentage of intermediate macrophages: increased
hPBMC [4]; 24 h pretreatment followed by 6 h LPS (25 ng/ml)
  secreted TNF-α production: decreased
hPBMC [4]; hPBMC supernatant, 24 h post treatment
  secreted IL-10 levels: dose dependently increased
pre-term lamb BPD model; 3 mg/Kg, day of life 10
  reactance (X7 hz): less reactance
  small airway resistance (R7-20 hz): less small airway resistance
pre-term lamb BPD model; 3.0 mg/Kg, day of life 10, relative to placebo
  resistance (R7 hz; respiratory system): lower resistance
[5]; 10 mg/kg IP
  total protein content in BALF: decreased
[5]; 10 mg/kg
  total inflammatory cells in BALF: significantly decreased
